Assay results reported in ChEMBL document CHEMBL1201862, “PubChem BioAssay data set” (2004).
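Following 48 hours of exposure in 96-well plates, responses at five concentrations were used to interpolate endpoints linearly. GI50: concentration for 50% inhibition of growth.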 Active and inactive are the calls of the source. No stated cut-off is given here; in the data, active = GI50 up to about 1.1 µM and inactive = higher. Starred links: 1 amine or outer side, 2 acyl side, 3 side chain; linkers in the order of their positions; H or OH if unused. Non-standard residues stand in square brackets, D forms with d. Residues, ends and D or L forms follow the SMILES beside them. X4 = C[C@H](N[*:1])C(=O)C(C)(C)C(=O)[*:2]; Hmpa(2S,3S) = CC[C@H](C)[C@H](O)C(=O)O; NMeY = CN[C@@H](Cc1ccc(O)cc1)C(=O)O; NMeL = CN[C@@H](CC(C)C)C(=O)O; NMeV = CN[C@H](C(=O)O)C(C)C; βAla = NCCC(=O)O

Key:
Assay in all cases: growth of human tumour cells (NCI), 48 h
SNB-78 = system: SNB-78
KM-20L2 = system: KM-20L2
XF498 = system: XF498
DLD-1 = system: DLD-1
HOP-18 = system: HOP-18
LXFL 529 = system: LXFL 529
MCF7 = system: MCF7
Hs-578T = system: Hs-578T
RXF 631 = system: RXF 631

## O=C(C[n+]1ccccc1)NNC(=O)/C(=C/c1ccc2c(c1)OCO2)NC(=O)c1ccccc1
SNB-78
  GI50: > 56.8 µM (inactive)
KM-20L2
  GI50: > 73.3 µM (inactive)
XF498
  GI50: > 41.2 µM (inactive)
DLD-1
  GI50: 38.2 µM (inactive)
HOP-18
  GI50: 34.9 µM (inactive)
LXFL 529
  GI50: 38.7 µM (inactive)

## CCc1ccc2oc(-c3cc(O)c(-c4nc5cc(CC)ccc5o4)cc3O)nc2c1
MCF7
  GI50: > 100 µM (inactive)
Hs-578T
  GI50: > 100 µM (inactive)

## CCOC(=O)C(NC(=O)c1cccc(Cl)c1)(Nc1cccc(C)c1)C(F)(F)F (stereo not drawn)
MCF7
  GI50: 19 µM (inactive)
Hs-578T
  GI50: 14.8 µM (inactive)

## O=C(O)CCN1CCN(CCC(=O)O)CCN(CCC(=O)O)CC1
MCF7
  GI50: 98.2 µM (inactive)
Hs-578T
  GI50: > 100 µM (inactive)

## COc1cc2c(cc1OC)C1(c3ccc(Cl)cc3)ON=C(c3ccccc3)N1CS2 (stereo not drawn)
SNB-78
  GI50: 4.56 µM (inactive)
KM-20L2
  GI50: > 100 µM (inactive)
RXF 631
  GI50: > 100 µM (inactive)
DLD-1
  GI50: > 100 µM (inactive)
HOP-18
  GI50: > 100 µM (inactive)
LXFL 529
  GI50: > 100 µM (inactive)

## CC(=O)O/N=C(Cl)/C(Cl)=N/OC(C)=O
SNB-78
  GI50: > 100 µM (inactive)
KM-20L2
  GI50: > 100 µM (inactive)
XF498
  GI50: > 100 µM (inactive)
DLD-1
  GI50: > 100 µM (inactive)
HOP-18
  GI50: > 100 µM (inactive)
LXFL 529
  GI50: > 100 µM (inactive)

## C/C(CC(=O)Nc1cccc(Cl)c1C)=N\N=C(N)N
SNB-78
  GI50: > 100 µM (inactive)
KM-20L2
  GI50: 42.6 µM (inactive)
XF498
  GI50: > 100 µM (inactive)
DLD-1
  GI50: > 100 µM (inactive)
HOP-18
  GI50: > 100 µM (inactive)
LXFL 529
  GI50: > 100 µM (inactive)

## c1ccc(-c2cc(-c3ccccc3)nc(-c3ccncc3)c2)cc1
MCF7
  GI50: > 100 µM (inactive)
Hs-578T
  GI50: > 100 µM (inactive)

## [N-]=[N+]=CC(=O)OC1Cc2ccccc2C1
MCF7
  GI50: > 100 µM (inactive)
Hs-578T
  GI50: 42.9 µM (inactive)

## Cc1nnc(N/N=C2\C(=O)Nc3ccccc32)n1N
SNB-78
  GI50: > 100 µM (inactive)
KM-20L2
  GI50: > 100 µM (inactive)
RXF 631
  GI50: > 100 µM (inactive)
XF498
  GI50: > 100 µM (inactive)
DLD-1
  GI50: > 100 µM (inactive)
HOP-18
  GI50: > 100 µM (inactive)
LXFL 529
  GI50: > 100 µM (inactive)

## Cc1cccc2c1CC1(C2)Cc2c(C)cccc2C1=O (stereo not drawn)
MCF7
  GI50: 27.2 µM (inactive)
Hs-578T
  GI50: 37.6 µM (inactive)

## COc1ccccc1/C=C1\C(=O)N(C(=O)c2ccc(NC(C)=O)cc2)N=C1C
SNB-78
  GI50: > 100 µM (inactive)
XF498
  GI50: > 100 µM (inactive)
DLD-1
  GI50: > 100 µM (inactive)

## CC12CC3CC(C)(C1)CC(N=[N+]=[N-])(C3)C2
SNB-78
  GI50: > 100 µM (inactive)
XF498
  GI50: > 100 µM (inactive)
DLD-1
  GI50: > 100 µM (inactive)
HOP-18
  GI50: > 100 µM (inactive)
LXFL 529
  GI50: > 100 µM (inactive)

## CC(C)(C)c1cc(CCCCCCCC2(CCCCCCCc3cc(C(C)(C)C)cc(C(C)(C)C)c3)OC(COCCOCCCCCC#N)C(COCCOCCCCCC#N)O2)cc(C(C)(C)C)c1 (stereo not drawn)
SNB-78
  GI50: > 100 µM (inactive)
KM-20L2
  GI50: > 100 µM (inactive)
DLD-1
  GI50: > 100 µM (inactive)
HOP-18
  GI50: > 100 µM (inactive)
LXFL 529
  GI50: > 100 µM (inactive)

## CN1C(c2ccccc2)CC(=NO)CC1c1ccccc1 (stereo not drawn)
SNB-78
  GI50: > 100 µM (inactive)
KM-20L2
  GI50: 54.6 µM (inactive)
RXF 631
  GI50: 48.8 µM (inactive)
DLD-1
  GI50: 41.8 µM (inactive)
LXFL 529
  GI50: 52.8 µM (inactive)

## O=c1oc2cc(O)ccc2c2[nH]c3cc(O)ccc3c12
SNB-78
  GI50: 43.7 µM (inactive)
KM-20L2
  GI50: 37.2 µM (inactive)
XF498
  GI50: 25.5 µM (inactive)
DLD-1
  GI50: 30.2 µM (inactive)
HOP-18
  GI50: 50.5 µM (inactive)
LXFL 529
  GI50: 27.1 µM (inactive)

## C#CC1(O)CCC2[C@@H]3CCc4cc(Oc5nc(F)nc(-c6c7ccccc7c(SCC)n6CCC)n5)ccc4C3CC[C@@]21C (stereo partly drawn)
SNB-78
  GI50: > 100 µM (inactive)
KM-20L2
  GI50: > 100 µM (inactive)
RXF 631
  GI50: > 100 µM (inactive)
XF498
  GI50: > 100 µM (inactive)
DLD-1
  GI50: > 100 µM (inactive)
HOP-18
  GI50: 24.2 µM (inactive)
LXFL 529
  GI50: 38.5 µM (inactive)

## CC1=NN(C(=O)c2ccccc2O)C(=O)/C1=C/c1ccco1
SNB-78
  GI50: 22.6 µM (inactive)
MCF7
  GI50: 4.27 µM (inactive)
KM-20L2
  GI50: 15 µM (inactive)
XF498
  GI50: 25.8 µM (inactive)
DLD-1
  GI50: 0.502 µM (active)
LXFL 529
  GI50: 1.54 µM (inactive)

## C[N+](C)(C)CC1CCCC(C[N+](C)(C)C)C1O (stereo not drawn)
SNB-78
  GI50: > 100 µM (inactive)
KM-20L2
  GI50: > 100 µM (inactive)
RXF 631
  GI50: > 100 µM (inactive)
DLD-1
  GI50: > 100 µM (inactive)
HOP-18
  GI50: > 100 µM (inactive)
LXFL 529
  GI50: > 100 µM (inactive)

## O=C1Nc2ccccc2/C1=N/Nc1ccccc1[N+](=O)[O-]
MCF7
  GI50: > 100 µM (inactive)
Hs-578T
  GI50: 29.2 µM (inactive)

## COc1cc(OC)c2c(=O)cc(-c3ccc(OC)c(OC)c3OC)oc2c1
KM-20L2
  GI50: > 100 µM (inactive)
XF498
  GI50: > 100 µM (inactive)
DLD-1
  GI50: > 100 µM (inactive)
LXFL 529
  GI50: 89.5 µM (inactive)

## CC[C@H](C)[C@@H]1OC(=O)CCNC(=O)[C@@H](C)NC(=O)C(C)(C)C(=O)[C@H](C)NC(=O)[C@H](Cc2ccc(OC)cc2)N(C)C(=O)[C@H](C(C)C)N(C)C(=O)CNC(=O)[C@H](CC(C)C)N(C)C(=O)CNC1=O (cyclo(G[NMeL]G[NMeV][NMeY](Me)[X4][dA][βAla][Hmpa(2S,3S)]))
MCF7
  GI50: 0.387 µM (active)
Hs-578T
  GI50: 0.916 µM (active)

## COc1cc(Cn2c3ccccc3c3cc(C)c4c(c32)C=CC(C)(CCC=C(C)C)O4)cc2c1[nH]c1ccccc12 (stereo not drawn) [CHRESTFOLINE C]
SNB-78
  GI50: > 100 µM (inactive)
KM-20L2
  GI50: > 100 µM (inactive)
DLD-1
  GI50: > 100 µM (inactive)
HOP-18
  GI50: > 100 µM (inactive)
LXFL 529
  GI50: 88.5 µM (inactive)

## C=C(Cl)[C@](Cl)(CBr)CC[C@@H](Br)C(C)(C)Cl [HALOMON]
MCF7
  GI50: 0.822 µM (active)
Hs-578T
  GI50: 0.611 µM (active)

## COc1cccc(O)c1-c1cc(=O)c2c(O)c(OC)c(OC)c(OC)c2o1 [SKULLCAPFLAVONE II]
MCF7
  GI50: 27.3 µM (inactive)
Hs-578T
  GI50: 35.9 µM (inactive)
